Assay results taken from patent US20260013504A1, “HERBICIDAL MIXTURE, HERBICIDAL COMPOSITION, METHOD, USE, AND KITS FOR CONTROLLING UNDESIRABLE VEGETATION” (ADAMA AGAN LTD., priority 2022, published 2026).

Legend:
Type in all cases: in vivo
Aegilops tauschii = assay: Pot experiment, soil treatment, control of Aegilops tauschii (fresh weight, Colby); conditions: mixtures: both AIs at these rates, after 35 days
From the text: (§1) Referring to an article of Colby, S. R. i.e., Calculation of the synergistic and antagonistic response of herbicide combinations.
E0 is the theoretical fresh weight survival rate for the mixture of pyroxasulfone and the second herbicide selected from the group consisting of fluorochloridone, aclonifen, diflufenican and terbutryn;
X is the measured fresh weight survival rate for pyroxasulfone used alone at the same dosage as that in the mixture;
Y is the measured fresh weight survival rate for the second herbicide selected from the group consisting of fluorochloridone, aclonifen, diflufenican and terbutryn used alone at the same dosage as that in the mixture;
E is the measured fresh weight survival rate for the mixture of pyroxasulfone and the second herbicide selected from the group consisting of fluorochloridone, aclonifen, diflufenican and terbutryn.
(§2) E0-E value is calculated to evaluate the combined effect of pyroxasulfone and the second herbicide selected from the group consisting of fluorochloridone, aclonifen, diflufenican and terbutryn on the selected weeds.
(§3) In this Example, the herbicidal activity of treatments by a mixture of pyroxasulfone and the second herbicide selected from the group consisting of fluorochloridone, aclonifen, diflufenican and terbutryn for controlling Aegilops tauschii was investigated by a pot experiment. This Example was carried out in accordance with “NY/T 1155.4-2006 Guidelines for Indoor Bioassay Tests of Pesticides, Herbicides Part 4: Activity Determination Tests, Stem and Leaf Spray Method”. • Source of the agrochemicals tested were: • Pyroxasulfone: pyroxasulfone (850g/Kg, WG) from Adama Agan LTD. • Fluorochloridone: fluorochloridone (250 g/L, EC) from Adama Agan LTD. • Aclonifen: aclonifen (600 g/L, SC) from Adama Agan LTD. • Diflufenican: diflufenican (50g/Kg, WP) from Bayer. • Terbutryn: terbutryn (50g/Kg, SC) from Zhejiang Zhongshan Chemical Industry Group Co., Ltd. • Cultivation of test materials: The test soil was formed by mixing the 20 cm layer loam on the ground surface and the culture medium in a ratio of 3:1 as cultivation soil. Weeds were cultivated in an artificial climate chamber. The daytime and nighttime temperatures were set at 22° C. and 19° C., respectively, and the illumination was set at daytime: dark time 12h: 12h.
(§4) A certain amount of Aegilops tauschii seeds were sown in a plastic pot with a diameter of 9 cm, covering with 1-2 mm soil, and putting them in an enamel dish filled with water. The bottom infiltration method was used to water them, the agrochemicals tested in this Example were applied on the second day after sowing Aegilops tauschii seeds.
(§5) Spraying treatment: ASS-4 automatic control spraying system with a fan-shaped nozzle was used indoors to spray the agrochemicals, the running speed was adjusted based on nozzle pressure, flow rate, etc. to spray 50 mL of liquid of agrochemicals on the actual spray area of 1.1 m2 (equivalent to 30 liters per mu), arranging the plastic pots to be processed on the spraying table evenly, and spraying evenly. The spraying pressure was 0.35 MPa, and the flow rate of the fan-shaped nozzle was 800 mL/min, spraying in order from low dosage to high dosage. Each treatment was repeated 3 times. After spraying, the plastic pots were dried for one day, placed in an artificial climate chamber, and watered regularly to keep moist.
(§6) Weed investigation method and time: after applying the agrochemicals, the symptoms of weed damage (such as growth inhibition, chlorosis, deformity, etc.) were recorded in detail. After 35 days, the fresh weight of aerial part of the weeds in each treatment was weighed, and the measured fresh weight inhibition rate and the measured fresh weight survival rate for each treatment were calculated according to the following equations: […]

Lolium multiflorum Lamk = assay: Pot experiment, soil treatment, control of Lolium multiflorum Lamk (fresh weight, Colby); conditions: mixtures: both AIs at these rates, after 35 days
Experimental: as §1, §2, §3, §4, §5, §6
Example 2 was conducted in substantially the same way as Example 1, except that Lolium multiflorum Lamk was used instead of Aegilops tauschii.

Bromus japonicus = assay: Pot experiment, soil treatment, control of Bromus japonicus (fresh weight, Colby); conditions: mixtures: both AIs at these rates, after 35 days
Experimental: as §1, §2, §3, §4, §5, §6
Example 3 was conducted in substantially the same way as Example 1, except that Bromus japonicus was used instead of Aegilops tauschii.

Galium aparine = assay: Pot experiment, soil treatment, control of Galium aparine (fresh weight, Colby)
Experimental: as §1, §2, §3, §4, §5, §6
Example 4 was conducted substantially the same way as Example 1, except that Galium aparine was used instead of Aegilops tauschii.

Lithospermum arvense = assay: Pot experiment, soil treatment, control of Lithospermum arvense (fresh weight, Colby)
Experimental: as §1, §2, §3, §4, §5, §6
Example 5 was conducted substantially the same way as Example 1, except that Lithospermum arvense was used instead of Aegilops tauschii.

Solanum nigrum = assay: Pot experiment (glass greenhouse), soil treatment, control of Solanum nigrum (fresh weight, Colby)
Experimental: as §1, §2, §3, §4, §5, §6
Example 6 was substantially conducted in the same as Example 1, except that (1) Solanum nigrum was used instead of Aegilops tauschii, (2) in “Cultivation of test materials” part, Solanum nigrum was cultivated in a glass greenhouse instead of an artificial climate chamber at a temperature of 25 to 33° C. with a natural illumination, and (3) in “Spraying treatment” part, after spraying and drying, the plastic pots were placed in a glass greenhouse instead of an artificial climate chamber.

[1] = g ai/ha: pyroxasulfone 11.25, fluorochloridone 31.25, aclonifen 150, diflufenican 14.0625, terbutryn 140.625
[2] = g ai/ha: pyroxasulfone 22.5, fluorochloridone 62.5, aclonifen 300, diflufenican 28.125, terbutryn 281.25
[3] = g ai/ha: pyroxasulfone 45, fluorochloridone 125, aclonifen 600, diflufenican 56.25, terbutryn 562.5
[4] = g ai/ha: pyroxasulfone 90, fluorochloridone 250, aclonifen 1200, diflufenican 112.5, terbutryn 1125
[5] = g ai/ha: pyroxasulfone 180, fluorochloridone 500, aclonifen 2400, diflufenican 225, terbutryn 2250
[6] = g ai/ha: pyroxasulfone 360, fluorochloridone 1000, aclonifen 4800, diflufenican 450, terbutryn 4500

## Nc1c([N+](=O)[O-])ccc(Oc2ccccc2)c1Cl [aclonifen, 2-chloro-6-nitrio-3-phenoxyaniline]
Aegilops tauschii; [1]
  Measured fresh weight inhibition rate (%): 6.1%
  Measured fresh weight survival rate (%) - E: 93.9%
Aegilops tauschii; [2]
  Measured fresh weight inhibition rate (%): 25.0%
  Measured fresh weight survival rate (%) - E: 75.0%
Aegilops tauschii; [3]
  Measured fresh weight inhibition rate (%): 26.2%
  Measured fresh weight survival rate (%) - E: 73.8%
Aegilops tauschii; [4]
  Measured fresh weight inhibition rate (%): 70.1%
  Measured fresh weight survival rate (%) - E: 29.9%
Aegilops tauschii; [5]
  Measured fresh weight inhibition rate (%): 74.4%
  Measured fresh weight survival rate (%) - E: 25.6%
Aegilops tauschii; [6]
  Measured fresh weight inhibition rate (%): 97.6%
  Measured fresh weight survival rate (%) - E: 2.4%
Lolium multiflorum Lamk; [1]
  Measured fresh weight inhibition rate (%): 89.1%
  Measured fresh weight survival rate (%) - E: 10.9%
Lolium multiflorum Lamk; [2]
  Measured fresh weight inhibition rate (%): 96.4%
  Measured fresh weight survival rate (%) - E: 3.6%
Lolium multiflorum Lamk; [3]
  Measured fresh weight inhibition rate (%): 99.5%
  Measured fresh weight survival rate (%) - E: 0.5%
Lolium multiflorum Lamk; [4]
  Measured fresh weight inhibition rate (%): 100.0%
  Measured fresh weight survival rate (%) - E: 0.0%
Lolium multiflorum Lamk; [5]
  Measured fresh weight inhibition rate (%): 100.0%
  Measured fresh weight survival rate (%) - E: 0.0%
Lolium multiflorum Lamk; [6]
  Measured fresh weight inhibition rate (%): 100.0%
  Measured fresh weight survival rate (%) - E: 0.0%
Bromus japonicus; [1]
  Measured fresh weight inhibition rate (%): 45.4%
  Measured fresh weight survival rate (%) - E: 54.6%
Bromus japonicus; [2]
  Measured fresh weight inhibition rate (%): 86.6%
  Measured fresh weight survival rate (%) - E: 13.4%
Bromus japonicus; [3]
  Measured fresh weight inhibition rate (%): 100.0%
  Measured fresh weight survival rate (%) - E: 0.0%
Bromus japonicus; [4]
  Measured fresh weight inhibition rate (%): 100.0%
  Measured fresh weight survival rate (%) - E: 0.0%
Bromus japonicus; [5]
  Measured fresh weight inhibition rate (%): 100.0%
  Measured fresh weight survival rate (%) - E: 0.0%
Galium aparine; 150 g ai/ha
  Measured fresh weight survival rate (%) - E: 79.5%
Galium aparine; 300 g ai/ha
  Measured fresh weight survival rate (%) - E: 63.0%
Galium aparine; 600 g ai/ha
  Measured fresh weight survival rate (%) - E: 9.6%
Galium aparine; 1200 g ai/ha
  Measured fresh weight survival rate (%) - E: 0.0%
Galium aparine; 2400 g ai/ha
  Measured fresh weight survival rate (%) - E: 0.0%
Galium aparine; Galium aparine, soil, 150 g ai/ha, read-out: Measured fresh weight inhibition rate (%)
  inhibition at 150 g/ha: 20.5%
Galium aparine; Galium aparine, soil, 300 g ai/ha, read-out: Measured fresh weight inhibition rate (%)
  inhibition at 300 g/ha: 37%
Galium aparine; Galium aparine, soil, 600 g ai/ha, read-out: Measured fresh weight inhibition rate (%)
  inhibition at 600 g/ha: 90.4%
Galium aparine; Galium aparine, soil, 1200 g ai/ha, read-out: Measured fresh weight inhibition rate (%)
  inhibition at 1200 g/ha: 100%
Galium aparine; Galium aparine, soil, 2400 g ai/ha, read-out: Measured fresh weight inhibition rate (%)
  inhibition at 2400 g/ha: 100%
Lithospermum arvense; 150 g ai/ha
  Measured fresh weight survival rate (%) - E: 43.5%
Lithospermum arvense; 300 g ai/ha
  Measured fresh weight survival rate (%) - E: 13.0%
Lithospermum arvense; 600 g ai/ha
  Measured fresh weight survival rate (%) - E: 1.4%
Lithospermum arvense; 1200 g ai/ha
  Measured fresh weight survival rate (%) - E: 0.0%
Lithospermum arvense; 2400 g ai/ha
  Measured fresh weight survival rate (%) - E: 0.0%
Lithospermum arvense; Buglossoides arvensis, soil, 150 g ai/ha, read-out: Measured fresh weight inhibition rate (%)
  inhibition at 150 g/ha: 56.5%
Lithospermum arvense; Buglossoides arvensis, soil, 300 g ai/ha, read-out: Measured fresh weight inhibition rate (%)
  inhibition at 300 g/ha: 87%
Lithospermum arvense; Buglossoides arvensis, soil, 600 g ai/ha, read-out: Measured fresh weight inhibition rate (%)
  inhibition at 600 g/ha: 98.6%
Lithospermum arvense; Buglossoides arvensis, soil, 1200 g ai/ha, read-out: Measured fresh weight inhibition rate (%)
  inhibition at 1200 g/ha: 100%
Lithospermum arvense; Buglossoides arvensis, soil, 2400 g ai/ha, read-out: Measured fresh weight inhibition rate (%)
  inhibition at 2400 g/ha: 100%
Solanum nigrum; 150 g ai/ha
  Measured fresh weight survival rate (%) - E: 87.1%
Solanum nigrum; 300 g ai/ha
  Measured fresh weight survival rate (%) - E: 82.7%
Solanum nigrum; 600 g ai/ha
  Measured fresh weight survival rate (%) - E: 69.4%
Solanum nigrum; 1200 g ai/ha
  Measured fresh weight survival rate (%) - E: 56.9%
Solanum nigrum; 2400 g ai/ha
  Measured fresh weight survival rate (%) - E: 26.3%
Solanum nigrum; Solanum nigrum, soil, 150 g ai/ha, read-out: Measured fresh weight inhibition rate (%)
  inhibition at 150 g/ha: 12.9%
Solanum nigrum; Solanum nigrum, soil, 300 g ai/ha, read-out: Measured fresh weight inhibition rate (%)
  inhibition at 300 g/ha: 17.3%
Solanum nigrum; Solanum nigrum, soil, 600 g ai/ha, read-out: Measured fresh weight inhibition rate (%)
  inhibition at 600 g/ha: 30.6%
Solanum nigrum; Solanum nigrum, soil, 1200 g ai/ha, read-out: Measured fresh weight inhibition rate (%)
  inhibition at 1200 g/ha: 43.1%
Solanum nigrum; Solanum nigrum, soil, 2400 g ai/ha, read-out: Measured fresh weight inhibition rate (%)
  inhibition at 2400 g/ha: 73.7%
